Key:
iPSC^USP48MV organoids [1] = test: Proliferation by EdU uptake; type: cell-based, human; conditions: drug alone, 500 nM
Experimental: (§1) Organoids were immunostained using published protocols by our laboratory. Proliferation was measured by using 5-ethynyl-2'-deoxyuridine (EdU) incorporation according to the Manufacturer's protocol (Click-IT EdU Alexa Fluor 555 Imaging Kit, Thermo Fisher Scientific C10338). Costaining was performed by blocking fixed organoids with 2% donkey serum (Jackson Immuno Research, #017-000-121) diluted in 0.01% PBST for 1 hr. at room temperature. Organoids were then incubated overnight at 4° C. with primary antibodies followed by secondary antibodies and Hoechst (Thermo Fisher Scientific H1399, 1:1000 in 0.01% PBST) for 1 hr at room temperature. Human specific primary antibodies used included: rabbit anti-ACTH (Thermo Fisher Scientific 701293, 1:250), rabbit anti-Synaptophysin (Thermo Fisher Scientific PA5-27286, 1:100), […] (Thermo Fisher Scientific PA5-98650, 1:50), rabbit anti-LH (Thermo Fisher Scientific PA5-102674, 1:100), mouse anti-FSH (Thermo Fisher Scientific MIF2709, 1:100), mouse anti-PRL (Thermo Fisher Scientific CF500720, 1:100), Alexa Flour conjugated GH (NB500-364AF647, 1:100) and mouse anti-CAM5.2 (SIGMA […]-95, 1:250). The secondary antibodies used included Alexa Fluor 488 Donkey Anti Rabbit IgG (H+L) (Thermo Fisher Scientific A21206, 1:100) or Alexa Fluor 647 Donkey Anti Mouse IgG (H+L) (Thermo Fisher Scientific A31571, 1:100). Organoids were visualized and images acquired by confocal microscopy using the Nikon CrestV2 Spinning Disk. Fluorescence intensity and percentage of EdU positive cells of total cells, were calculated using Nikon Elements Software (Version 5.21.05).

iPSC^ctrl organoids [2] = test: Proliferation by EdU uptake; type: cell-based, human; conditions: drug alone, 500 nM
Experimental: as §1

macroadenomas = conditions: patients with macroadenomas; relacorilant for three months; cited from earlier work
[3] = system: pancreatic and ovarian cancer cell lines; conditions: cited from earlier work
iPSC^USP48MV organoids [4] = test: Nuclear irregularity index (NII) morphometric analysis; type: cell-based, human; conditions: 500 nM
Experimental: (§2) Nuclear Morphometric Analysis (NMA) using treated organoids was performed based on a published protocol that measures cell viability based on the changes in nuclear morphology of the cells using nuclear stain Hoechst or DAPI [30]. Images of organoid nuclei were analyzed using the ImageJ Nuclear Irregularity Index (NII) plugin for key parameters that included cell area, radius ratio, area box, aspect, and roundness. Using the published spreadsheet template, the NII of each cell was calculated with the following formula: NII=Aspect−Area Box+Radius Ratio+Roundness. The area vs NII of vehicle-treated cells were plotted as a scatter plot using the template and considered as the normal cell nuclei. The same plots were generated for each condition, and the NII and area of treated cells were compared to the normal nuclei, and classified as one of the following NMA populations: Normal (N; similar area and NII), Mitotic (S; similar area, slightly higher NII), Irregular (I; similar area, high NII), Small Regular (SR; apoptotic, low area and NII), Senescent (LR; high area, low NII), Small Irregular (SI; low area, high NII), or Large Irregular (LI; high area, high NII). […] The percentage of cells in each NII classification category were calculated and plotted as a histogram using GraphPad Prism.

iPSC^ctrl organoids [5] = test: as above; type: cell-based, human; conditions: 500 nM
Experimental: as §2

SSTR5 = test: Differential expression of SSTR5 in iPSC generated pituitary tumor organoids; type: cell-based, human; conditions: iPSC organoids (ctrl, USP48MI, USP48MV, USP8); 500 nM; vs vehicle
iPSC^USP48MV organoids [6] = test: Spectral flow cytometry (SSTR2, SSTR5, ACTH, zombie); type: cell-based, human; conditions: Rela 500 nM, Mife 500 nM
Experimental: (§3) The multicolor flow cytometry panel was designed using the Cytek®Full Spectrum Viewer online tool to calculate the similarity index. The organoids were harvested in cold SFDM media and centrifuged at 400×g for 5 minutes. Supernatant was discarded and organoids were dissociated to single cells using Accutase® (Thermo Fisher Scientific 00-4555-56). The enzymatic reaction was stopped using prewarmed DPBS and cells were then centrifuged at 400×g for 5 minutes and incubated with fluorochrome-conjugated/unconjugated primary surface or cytoplasmic antibodies at 4° C. for 30 minutes. Cells were then washed with Cell Staining Buffer (BioLegend #420-201) and incubated with secondary antibodies at 4° C. for 30 minutes. Cells were fixed using Cytofix/Cytoperm™ Fixation/Permeabilization Solution (BD Biosciences #554714) at 4° C. for 20 minutes, followed by washing with Fixation/Permeabilization wash buffer. Cells were then labeled with fluorochrome-conjugated/unconjugated intracellular primary antibodies at 4° C. for 30 minutes, washed and incubated with secondary antibodies at 4° C. for 30 minutes. Cells resuspended in cell staining buffer and fluorescence measured using the Cytek Aurora 5 Laser Spectral Flow Cytometer. An unstained cell sample was fixed and used as reference control. UltraComp eBeads™, Compensation Beads (Thermo Fisher Scientific #01-2222-42) were stained with the individual antibodies and used as single stain control for compensation and gating. Data was acquired using the Cytek™ Aurora and analyzed using Cytobank software (Beckman Coulter, Indianapolis, IN).

hPITO37 = test: as above; type: cell-based, human; conditions: Rela 382 nM, Mife 2.85 nM
Experimental: as §3

SSTR2 = test: Differential expression of SSTR2 in iPSC generated pituitary tumor organoids; type: cell-based, human; conditions: iPSC organoids (ctrl, USP48MI, USP48MV, USP8); 500 nM; vs vehicle
FKBP5 = test: GR modulation: GR target gene FKBP5 expression in PitNET organoids; type: cell-based, human

SMILES: Cn1cc(S(=O)(=O)N2CCC3=Cc4c(cnn4-c4ccc(F)cc4)C[C@]3(C(=O)c3cc(C(F)(F)F)ccn3)C2)cn1 [relacorilant]
- cell proliferation (EdU uptake) (iPSC^USP48MV organoids [1]): did not induce organoid proliferation
- cell proliferation (EdU uptake) (iPSC^ctrl organoids [2]): did not induce organoid proliferation
- tumor (macroadenoma) regression (macroadenomas): tumor regression in two patients
- apoptosis in vitro [3]: induces apoptosis
- apoptotic cells by nuclear morphology (NII) (iPSC^USP48MV organoids [4]): increased apoptotic cells
- apoptotic cells by nuclear morphology (NII) (iPSC^ctrl organoids [5]): not observed
- expression of SSTR5 (SSTR5): significant induction
- ACTH positive cells (iPSC^USP48MV organoids [6]; Pas 100 nM): did not significantly increase
- cell death (Zombie positive cells) (iPSC^USP48MV organoids [6]; Pas 100 nM): significant increase
- percentage of SSTR2 positive cells (iPSC^USP48MV organoids [6]; vs Veh): significant increase
- percentage of SSTR5 positive cells (iPSC^USP48MV organoids [6]; vs Veh): significant increase
- cell death (Zombie positive cells) (hPITO37; Pas 837.5 nM): significant increase
- percentage of SSTR2 positive cells (hPITO37; vs Veh): significant increase
- percentage of SSTR5 positive cells (hPITO37; vs Veh): significant increase
- expression of SSTR2 (SSTR2): significant induction
- differential expression of FKBP5 (FKBP5): significantly reduced

— US20250163387A1, “HUMAN PITUITARY NEUROENDOCRINE TUMOR ORGANOIDS AND METHODS OF MAKING AND USING THE SAME” (ARIZONA BOARD OF REGENTS OF THE UNIVERSITY OF ARIZONA, A …, priority 2022, published 2025)
